Test results as given in publication PMC8808171, “Nonselective TRPC channel inhibition and suppression of aminoglycoside-induced premature termination codon readthrough by the small molecule AC1903” (The Journal of Biological Chemistry, 2022).
Entries after “also recorded” stand apart in the source; their conditions may differ.

Tests used:
TRPV1:V1 = biological target: T1, TRPV1:V1 (Rattus norvegicus, UniProt O35433); assay: [Ca2+]i recordings (Fura-2), TRPV1:V1 in HEK 293 cells; assay type: cell-based
T1 construct: expressed in transfected cells; host or cells: WT HEK 293 (transient)
T1 sequence (O35433 whole entry): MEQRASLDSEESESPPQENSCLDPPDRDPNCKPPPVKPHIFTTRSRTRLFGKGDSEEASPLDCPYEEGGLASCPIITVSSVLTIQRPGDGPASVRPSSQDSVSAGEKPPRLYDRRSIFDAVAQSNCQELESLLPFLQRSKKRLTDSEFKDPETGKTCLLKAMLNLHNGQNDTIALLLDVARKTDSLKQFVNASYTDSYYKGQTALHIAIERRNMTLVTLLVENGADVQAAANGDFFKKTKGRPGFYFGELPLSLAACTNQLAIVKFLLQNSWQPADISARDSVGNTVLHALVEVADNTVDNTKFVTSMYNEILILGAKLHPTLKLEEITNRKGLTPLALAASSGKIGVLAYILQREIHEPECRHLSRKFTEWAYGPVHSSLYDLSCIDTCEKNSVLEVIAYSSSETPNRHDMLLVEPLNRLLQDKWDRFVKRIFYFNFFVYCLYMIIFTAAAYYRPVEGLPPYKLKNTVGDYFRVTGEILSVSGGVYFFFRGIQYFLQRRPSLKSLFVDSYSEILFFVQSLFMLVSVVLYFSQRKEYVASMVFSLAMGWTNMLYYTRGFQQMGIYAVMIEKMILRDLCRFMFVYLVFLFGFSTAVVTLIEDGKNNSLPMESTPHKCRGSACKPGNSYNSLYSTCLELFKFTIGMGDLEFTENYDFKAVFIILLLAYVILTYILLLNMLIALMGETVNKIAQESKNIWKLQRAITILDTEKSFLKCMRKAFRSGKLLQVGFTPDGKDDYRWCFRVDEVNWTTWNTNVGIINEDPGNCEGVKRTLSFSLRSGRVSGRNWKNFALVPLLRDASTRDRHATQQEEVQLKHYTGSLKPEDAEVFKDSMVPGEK
Experimental: (§1) Based on the findings described above, we wondered whether AC1903—which is typically used as a TRPC5 inhibitor at concentrations of 30–100 μM in cellular assays ([29], [56])—might have limited selectivity for TRPC5 channels and whether its effect on intracellular G418 levels and PTC readthrough might be the consequence of inhibition of other or multiple targets. All well-characterized TRPC channel inhibitors reported to date modulate multiple TRP(C) channels ([34], [35], [36]). […] Because limited data for the selectivity of AC1903 are available in the public domain, we decided to profile AC1903 against a selection of calcium-permeable cation channels by intracellular calcium ([Ca^2+]i) recordings using well-characterized cell lines and TRP channel activators ([46], [57], [58]), and the Ca^2+ indicator Fura-2. In these assays, cells (HEK 293, HEK T-REx, or CHO) overexpressing the relevant ion channel protein and loaded with Fura-2 AM (a cell-permeable precursor of Fura-2) were preincubated with various concentrations of AC1903 or vehicle (DMSO) for 30 min. Then, changes in ratiometric fluorescence (from background) were recorded upon addition of the respective ion channel activator.
HEK T-REx cells expressing tetracycline-inducible TRPC4, TRPC5, TRPC5–C1,TRPC4–C1, and hPiezo1 have been described previously ([46], [57], [59], [78]). Cloning of TRPC3 has been described previously ([79]). To create cells stably expressing tetracycline-inducible TRPC3, HEK T-REx cells were transfected with pcDNA4/TO/hTRPC3 using jetPRIME transfection reagent (VWR) according to manufacturer’s instructions. After 48 h cells were put under antibiotic selection using 400 μg/ml zeocin and 10 μg/ml Blasticidin S (Invivogen)). Medium changes were carried out every 2 to 3 days to remove dead cells. […]

TRPC4–C1 = assay: [Ca2+]i recordings (Fura-2), concatemeric TRPC4–C1 in HEK T-REx cells; assay type: cell-based; conditions: activator EA (30 nM)
Experimental: as §1
HEK T-REx cells expressing tetracycline-inducible TRPC4, TRPC5, TRPC5–C1,TRPC4–C1, and hPiezo1 have been described previously ([46], [57], [59], [78]). […]

- effect on capsaicin-activated TRPV1 (TRPV1:V1; AC1903 100 μM): small effects
- IC50 (TRPV1:V1; HEK 293, activator capsaicin (500 nM)): > 50 µM
- IC50 (TRPC4–C1): 3000 nM
Structure (SMILES): c1ccc(Cn2c(NCc3ccco3)nc3ccccc32)cc1 [AC1903]
- inhibition of capsaicin-activated TRPV1 (TRPV1:V1; AC1903 up to 30 μM): does not affect; also recorded: did not inhibit
